Where “and” joins values, the source holds several entries; their conditions need not be identical. Equal values may be shown once.
Key:
murine SR-BI, isoform 1 = target: T1, murine SR-BI, isoform 1 (Mus musculus, UniProt Q61009); experiment: DiI-HDL uptake assay (primary assay); type: cell-based; conditions: for IC50: ldlA[mSR-BI] cells, 3 hours with compound
T1 construct: expressed in transfected cells; host or cells: ldlA[mSR-BI], Chinese hamster ovary (CHO) cells lacking LDL receptor (Krieger Laboratory)
T1 sequence (Q61009 1-509): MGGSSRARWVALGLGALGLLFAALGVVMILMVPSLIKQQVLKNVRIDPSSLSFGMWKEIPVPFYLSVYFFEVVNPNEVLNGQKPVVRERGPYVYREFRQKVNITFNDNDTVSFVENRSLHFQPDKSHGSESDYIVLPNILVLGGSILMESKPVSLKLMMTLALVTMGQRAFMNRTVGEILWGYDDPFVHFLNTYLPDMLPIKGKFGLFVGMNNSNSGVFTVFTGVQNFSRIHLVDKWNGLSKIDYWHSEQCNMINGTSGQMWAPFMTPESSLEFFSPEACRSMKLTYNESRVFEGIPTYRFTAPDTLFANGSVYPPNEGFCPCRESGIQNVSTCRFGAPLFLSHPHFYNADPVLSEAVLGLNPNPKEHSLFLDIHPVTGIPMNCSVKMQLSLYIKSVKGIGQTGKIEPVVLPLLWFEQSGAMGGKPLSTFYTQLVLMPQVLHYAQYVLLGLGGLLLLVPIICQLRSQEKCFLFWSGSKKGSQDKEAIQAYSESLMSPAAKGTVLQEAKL
Method: The following cell lines were used in this study: • ldlA[mSR-BI] is a Chinese hamster ovary (CHO) cell line that overexpresses murine SR-BI, isoform 1 (NP_058021) and was obtained from the (Krieger Laboratory). This cell line was used for the primary assay and several secondary assays. […] Assays DiI-HDL Uptake Assay (Primary Assay AID Nos. 488896, 493194, 540354 588392, 588553, 588548, 588754, 588828, 588833)
ldlA[mSR-BI] cells were plated into 384-well plates at 30 μl per well and incubated overnight. As a measurable surrogate for cholesterol uptake, human HDL particles were treated with the lipophilic fluorescent dye DiI and exposed to ldlA[mSR-BI] cells in lipoprotein-free media (Ham's F12/0.5% fatty acid-free Bovine Serum Albumin (BSA)/25 mM HEPES pH 7.4 plus 10 μg protein/ml DiI-HDL). Cells took up the DiI via SR-BI over 3 hours in the presence of compound. After significant uptake of the DiI, the cells became fluorescent. The level of fluorescence correlates with the amount of DiI uptake and can be measured with a standard plate reader (here a PerkinElmer EnVision plate reader was used). The uptake of lipid (represented by DiI) was inhibited by the positive control compound BLT-1 or with an excess of HDL untreated with DiI. Primary HTS data were analyzed in Genedata Screener Assay Analyzer, and were normalized against DMSO and the positive control (1 μM BLT-1). For the HTS, the average of two replicates was used to rank order activity and to choose compounds for retests. For dose studies, percent (%) activity was determined for each concentration and the concentration response curves (CRCs) were generated with Genedata Condeseo.
To identify novel inhibitors, SR-BI-mediated lipid uptake was measured in an engineered cell line that minimized potential uptake by other mechanisms, including via the LDL receptor (1). ldlA[mSR-BI] cells overexpress murine isoform 1 and selectively take up HDL lipid at similar levels as “has been reported for cultured mouse adrenal cells, perfused organs, and liver, adrenal gland and ovary in vivo” (1). This primary cell-based assay was used in a pilot screen that identified BLTs 1 through 5. The assay was slightly modified from the original protocol of Nieland et al. to increase throughput and to ease automation procedures.
Briefly, the plate reader was switched to a Perkin-Elmer EnVision, several washing steps were eliminated, and the cell number per well was reduced without impacting the robustness of the assay. The automated assay was first tested with a validation set of 2,240 compounds. These compounds were tested in duplicate with in-plate neutral (DMSO) and positive (1 μM BLT-1) controls. Robustness, reproducibility, and variability parameters were analyzed before initiating the full HTS. The HTS was run over the course of several weeks. Data were normalized relative to controls, and plate patterns were corrected using a multiplicative algorithm in Genedata Screener Assay Analyzer. For each compound, the average of the two replicates was determined and used for subsequent analysis.

ldlA7 cells = experiment: DiI-HDL uptake assay in the absence of SR-BI (ldlA7 counterscreen); type: cell-based, Chinese hamster; conditions: Cricetulus griseus; parental cells not overexpressing SR-BI
Method: DiI-HDL Uptake Assay in the Absence of SR-BI (SA 7: AID No. 588825)
In the primary assay, the cell line used to measure DiI-HDL uptake lacks the LDL receptor and overexpresses SR-BI. […] As in the primary assay, 10 μg protein/ml of DiI-HDL was used to measure DiI uptake into the cells after 3 hours of incubation with different concentrations of compound.

[1] = target: T2, purified SR-BI (mSR-BI-t1) (Mus musculus, UniProt Q61009); experiment: Lipid transport assay in liposomes; type: biochemical, murine; conditions: [3H]CE uptake into SR-BI liposomes
T2 construct: made in house; host or cells: HEK293S GnTI-defective cells, tetracycline-inducible promoter
T2 sequence (Q61009 1-509): T1 sequence (Q61009 1-509)
Source text: This assay provides confirmation of activity via SR-BI by measuring the uptake of [^3H]cholesteryl ester ([^3H]CE) into liposomes loaded with purified SR-BI. For the purification of C-terminally epitope-tagged murine SR-BI (mSR-BI-t1) with uniform, truncated N-linked oligosaccharide chains, we overexpressed mSR-BI-t1 in HEK293S cells. The mSR-BI-t1 was expressed in an N-acetylglucosaminyltransferase I (GnTI)-defective HEK293S derivative, HEK293S GnTI (2), which generates a glycoprotein with uniform, truncated N-linked oligosaccharide chains under the control of a tetracycline-inducible promoter. mSR-BI-t1 was immunoaffinity purified to virtual homogeneity, and the detergent-solubilized receptor was reconstituted into liposomes. Subsequently, the in vitro SR-BI-mediated selective uptake of [^3H]CE from [^3H]CE-HDL in the reconstituted liposomes was measured. […] Briefly, 20 μg of SR-BI (or an equivalent volume of protein-free buffer to generate control liposomes that are devoid of SR-BI) was reconstituted into liposomes by acetone precipitation. […] Incubation was continued for 4 hours at 37° C., and then selective uptake of [^3H]CE into liposomes was determined using the previously described filter binding assays (15). SR-BI-selective uptake values were determined.

[2] = Stability in human plasma; type: in vitro ADME; conditions: 5-hour incubation
Method: We noticed that the concentration of the probe fluctuated through the course of the assay (data not shown). We believe that this fluctuation is due to the low kinetic solubility of the probe. Thus, we decided to determine the amount of undissolved probe present in the well after it was treated with PBS for a given length of time, relative to the amount of undissolved probe at the start of the assay. The wells were centrifuged and the supernatant was removed after various time points, then acetonitrile was added to dissolve the remaining solid in the wells, and the amount of probe was quantified. […] The stability of the probe was confirmed by measuring stability in human plasma, with >99% remaining after a 5-hour incubation period. […] FIG. 5 summarizes known properties of the probe.

Row | SMILES | reduction in signal in primary HTS (murine SR-BI, isoform 1; 1 μM, positive control) | IC50 (murine SR-BI, isoform 1) | selectivity (murine SR-BI, isoform 1) | higher potency than ITX-5061 (murine SR-BI, isoform 1; AID No. 588828) | IC50 (ldlA7 cells) | interaction with SR-BI in purified liposomes (in words) [1] | stability in human plasma, remaining [2]
1 | CCCCCCC1CCCC1=NNC(N)=S (centres unmarked) [BLT-1, reference compound] | > 2.2 fold | 10.8 nM |  |  |  |  | 
2 | C[C@H](C(=O)NC1CCCC1)N(C(=O)Cn1nnc(-c2ccc3c(c2)OCO3)n1)C1CCCCC1 [ML279, (R)-2-(2-(5-(Benzo[d][1,3]dioxol-5-yl)-2H-tetrazol-2-yl)-N-cyclohexylacetamido)-N-cyclopentylpropanamide] |  | 16 nM and 16.2 nM | greater than 1000 | approximately 15 fold | > 35000 nM | direct interaction between the probe and SR-BI | > 99%
